Source: US20230233569A1 (Revolution Medicines, Inc., priority 2020, published 2023)
pIC50: −log10 of the molar value. Where “and” joins values, the source holds several entries; their conditions need not be identical. Equal values may be shown once. Read-outs that look alike come from different tables or passages of the source.

Columns and labels:
Assay in all cases: Disruption of BRAF RBD interaction with Ras (FRET / MOA assay, with Cyclophilin A)
Type in all cases: biochemical
KRAS WT = KRAS WT (Homo sapiens, UniProt P01116+P62937)
Text: (§1) This protocol may also be executed substituting other Ras proteins or nucleotides.
(§2) The purpose of this biochemical assay was to measure the ability of test compounds to facilitate ternary complex formation between a nucleotide-loaded K-Ras isoform and Cyclophilin A; the resulting ternary complex disrupts binding to a BRAF^RBD construct, inhibiting K-Ras signaling through a RAF effector. Data is reported as IC50 values.
(§3) Compound was present in plate wells as a 10-point 3-fold dilution series starting at a final concentration of 30 μM. After incubation at 25° C. for 3 hours, a mixture of Anti-His Eu-W1024 and anti-GST allophycocyanin was then added to assay sample wells at final concentrations of 10 nM and 50 nM, respectively, and the reaction incubated for an additional 1.5 hours. […] Compounds that facilitate disruption of a K-Ras:RAF complex were identified as those eliciting a decrease in the TR-FRET ratio relative to DMSO control wells.
(§4) The purpose of this biochemical assay was to measure the ability of test compounds to facilitate ternary complex formation between a nucleotide-loaded K-Ras isoform and Cyclophilin A; the resulting ternary complex disrupts binding to a BRAF^RBDD construct, inhibiting K-Ras signaling through a RAF effector. Data is reported as IC50 values.

KRAS G13C = KRAS G13C (Homo sapiens, UniProt P01116+P62937, G13C)
Text: as §1, §2, §3, §4

KRAS G12D = KRAS G12D (Homo sapiens, UniProt P01116+P62937, G12D)
Text: as §1, §2, §3, §4

KRAS G12V = KRAS G12V (Homo sapiens, UniProt P01116+P62937, G12V)
Text: as §1, §2, §3, §4

KRAS G12C = KRAS G12C (Homo sapiens, UniProt P01116+P62937, G12C)
Text: as §1, §2, §3, §4

KRAS G12S = KRAS G12S (Homo sapiens, UniProt P01116+P62937, G12S)
Text: as §1, §2, §3, §4

[1] = KRAS WT, read-out: KRAS WT FRET data IC50
[2] = KRAS G13C, read-out: KRAS G13C FRET data IC50
[3] = read-out: KRAS G12D FRET data, IC50
[4] = KRAS G12V, read-out: KRAS G12V FRET data IC50
[5] = KRAS G12C, read-out: KRAS G12C FRET data IC50
[6] = read-out: KRAS G12S FRET data, IC50

KRAS WT, sequence (P01116 1-169 isoform P01116-2 limits assumed): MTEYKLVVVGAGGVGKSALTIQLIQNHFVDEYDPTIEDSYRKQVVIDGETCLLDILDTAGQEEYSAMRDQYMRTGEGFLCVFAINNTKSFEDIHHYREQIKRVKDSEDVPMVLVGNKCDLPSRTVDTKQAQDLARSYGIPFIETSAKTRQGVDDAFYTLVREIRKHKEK
KRAS WT, sequence (P62937 whole entry): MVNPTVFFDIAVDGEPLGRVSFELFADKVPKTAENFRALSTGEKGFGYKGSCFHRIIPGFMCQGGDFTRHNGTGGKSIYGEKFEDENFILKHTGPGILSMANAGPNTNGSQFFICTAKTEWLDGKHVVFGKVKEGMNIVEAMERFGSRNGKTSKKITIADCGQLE
KRAS G12D, sequence (P01116 1-169 isoform P01116-2 G12D limits assumed): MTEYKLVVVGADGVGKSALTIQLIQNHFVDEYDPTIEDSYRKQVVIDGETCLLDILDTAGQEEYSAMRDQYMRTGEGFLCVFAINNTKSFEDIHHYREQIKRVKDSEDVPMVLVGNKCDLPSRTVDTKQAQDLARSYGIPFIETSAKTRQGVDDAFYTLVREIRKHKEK
KRAS G12D, sequence (P62937 whole entry): as the sequence (P62937 whole entry) above
KRAS G12S, sequence (P01116 1-169 isoform P01116-2 G12S limits assumed): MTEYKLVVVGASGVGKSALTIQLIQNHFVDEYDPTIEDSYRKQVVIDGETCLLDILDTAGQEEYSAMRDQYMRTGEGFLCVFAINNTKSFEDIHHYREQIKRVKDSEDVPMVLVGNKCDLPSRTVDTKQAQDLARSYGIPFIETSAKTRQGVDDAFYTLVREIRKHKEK
KRAS G12S, sequence (P62937 whole entry): as the sequence (P62937 whole entry) above
KRAS G12V, sequence (P01116 1-169 isoform P01116-2 G12V limits assumed): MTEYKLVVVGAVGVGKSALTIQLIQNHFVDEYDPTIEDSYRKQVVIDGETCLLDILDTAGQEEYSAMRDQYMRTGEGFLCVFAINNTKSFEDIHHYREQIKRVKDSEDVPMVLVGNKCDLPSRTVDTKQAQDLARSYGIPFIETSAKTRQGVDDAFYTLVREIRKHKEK
KRAS G12V, sequence (P62937 whole entry): as the sequence (P62937 whole entry) above
KRAS G13C, sequence (P01116 1-169 isoform P01116-2 G13C): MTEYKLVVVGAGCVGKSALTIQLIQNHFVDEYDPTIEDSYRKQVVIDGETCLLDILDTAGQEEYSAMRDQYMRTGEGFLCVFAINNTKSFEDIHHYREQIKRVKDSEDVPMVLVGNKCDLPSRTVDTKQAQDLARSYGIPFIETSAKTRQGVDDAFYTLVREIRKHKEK
KRAS G13C, sequence (P62937 whole entry): as the sequence (P62937 whole entry) above
KRAS G12C, sequence (P01116 1-169 isoform P01116-2 G12C): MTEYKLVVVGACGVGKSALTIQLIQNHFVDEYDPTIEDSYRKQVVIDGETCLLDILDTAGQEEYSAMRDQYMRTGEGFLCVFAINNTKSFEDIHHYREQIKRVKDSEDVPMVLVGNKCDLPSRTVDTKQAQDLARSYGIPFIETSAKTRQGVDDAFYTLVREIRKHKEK
KRAS G12C, sequence (P62937 whole entry): as the sequence (P62937 whole entry) above

Structure (SMILES) | pIC50 (KRAS WT; [1]) | pIC50 (KRAS G13C; [2]) | pIC50 (KRAS G12D; [3]) | pIC50 (KRAS G12V; [4]) | pIC50 (KRAS G12C; [5]) | pIC50 (KRAS G12S; [6]) | pIC50 (KRAS WT; KRAS WT FRET data IC50, KRAS WT) | pIC50 (KRAS G13C; KRAS G13C FRET data IC50, KRAS G13C) | pIC50 (KRAS G12D; KRAS G12D FRET data, IC50) | pIC50 (KRAS G12V; KRAS G12V FRET data IC50, KRAS G12V) | pIC50 (KRAS G12C; KRAS G12C FRET data IC50, KRAS G12C) | pIC50 (KRAS G12S; KRAS G12S FRET data, IC50)
C=CC(=O)N1CC[C@H](C(=O)N(C)[C@H](C(=O)N[C@H]2Cc3cc(O)cc(c3)-c3ccc4c(c3)c(c(-c3ccccc3CCOC)n4C(C)(C)C#N)CC(C)(C)COC(=O)[C@@H]3CCCN(N3)C2=O)C(C)C)C1 [Example A034] | 5.00 to 6.00 | 5.00 to 6.00 | 5.00 to 6.00 | 6.00 to 7.00 | 6.00 to 7.00 | 6.00 to 7.00 | – | – | – | – | – | –
C=CC(=O)N1CC[C@H](C(=O)N(C)[C@H](C(=O)N[C@H]2Cc3cc(O)cc(c3)-c3ccc4c(c3)c(c(-c3ccc5cc(CN(C)C)n(C)c5c3)n4CC)CC(C)(C)COC(=O)[C@@H]3CCCN(N3)C2=O)C(C)C)C1 [Example A035] | 5.00 to 6.00 | 5.00 to 6.00 | < 5.00 | 5.00 to 6.00 | 6.00 to 7.00 | 5.00 to 6.00 | – | – | – | – | – | –
C=CC(=O)N1CC[C@H](C(=O)N(C)[C@H](C(=O)N[C@H]2Cc3cc(OC(=O)NCC(=O)O)cc(c3)-c3ccc4c(c3)c(c(-c3ccccc3CCOC)n4CC)CC(C)(C)COC(=O)[C@@H]3CCCN(N3)C2=O)C(C)C)C1 [Example A036] | – | – | – | – | – | – | 5.00 to 6.00 and < 5.00 | 6.00 to 7.00 and < 5.00 | < 5.00 | 5.00 to 6.00 and < 5.00 | 5.00 to 6.00 and < 5.00 | 5.00 to 6.00 and < 5.00
C=CC(=O)N1CC[C@H](C(=O)N(C)[C@H](C(=O)N[C@H]2Cc3cc(O)cc(c3)-c3ccc4c(c3)c(c(-c3ccc(C5CCN(C)CC5)cc3)n4CC)CC(C)(C)COC(=O)[C@@H]3CCCN(N3)C2=O)C(C)C)C1 [Example A039] | 5.00 to 6.00 | 5.00 to 6.00 | 5.00 to 6.00 | 5.00 to 6.00 | 6.00 to 7.00 | 5.00 to 6.00 | – | – | – | – | – | –
C=CC(=O)N1C[C@H](C)[C@H](C(=O)N(C)[C@H](C(=O)N[C@H]2Cc3cc(O)cc(c3)-c3ccc4c(c3)c(c(-c3ccccc3CCOC)n4CC)CC(C)(C)COC(=O)[C@@H]3CCCN(N3)C2=O)C(C)C)C1 [Example A041] | 5.00 to 6.00 | 5.00 to 6.00 | < 5.00 | 6.00 to 7.00 | 6.00 to 7.00 | 6.00 to 7.00 | – | – | – | – | – | –
C=CC(=O)N1CC[C@H](C(=O)N(C)[C@H](C(=O)N[C@H]2Cc3cc(O)cc(c3)-c3ccc4c(c3)c(c(-c3cccnc3COCC)n4CC)CC(C)(C)COC(=O)[C@@H]3CCCN(N3)C2=O)C(C)C)C1 [Example A044] | 5.00 to 6.00 | 6.00 to 7.00 | 5.00 to 6.00 | 6.00 to 7.00 | 7.00 to 8.00 | 6.00 to 7.00 | – | – | – | – | – | –
CCn1c(-c2ccccc2CN(C)C)c2c3cc(ccc31)-c1cc(O)cc(c1)C[C@H](NC(=O)[C@H](C(C)C)N(C)C(=O)c1ccc(NC(=O)/C=C/CN(C)C)cn1)C(=O)N1CCC[C@H](N1)C(=O)OCC(C)(C)C2 [Example A046] | < 5.00 | 7.00 to 8.00 | 5.00 to 6.00 | 5.00 to 6.00 | 6.00 to 7.00 | < 5.00 | – | – | – | – | – | –
CCn1c(-c2ccccc2CN(C)C)c2c3cc(ccc31)-c1cc(O)cc(c1)C[C@H](NC(=O)[C@H](C(C)C)N(C)C(=O)[C@H]1CCN(C(=O)/C=C/CN(C)C)C1)C(=O)N1CCC[C@H](N1)C(=O)OCC(C)(C)C2 [Example A047] | 5.00 to 6.00 | 6.00 to 7.00 | 5.00 to 6.00 | 6.00 to 7.00 | 7.00 to 8.00 | 6.00 to 7.00 | – | – | – | – | – | –
C=CC(=O)N1CC[C@H](C(=O)N(C)[C@H](C(=O)N[C@H]2Cc3cc(O)cc(c3)-c3ccc4c(c3)c(c(-c3ccc(CN(C)C)cc3COC)n4CC)CC(C)(C)COC(=O)[C@@H]3CCCN(N3)C2=O)C(C)C)C1 [Example A051] | 5.00 to 6.00 | 5.00 to 6.00 | 5.00 to 6.00 | 6.00 to 7.00 | 7.00 to 8.00 | 6.00 to 7.00 | – | – | – | – | – | –
C=CC(=O)N1C[C@H](C)[C@H](C(=O)N(C)[C@H](C(=O)N[C@H]2Cc3cc(O)cc(c3)-c3ccc4c(c3)c(c(-c3ccccc3CN(C)C)n4CC)CC(C)(C)COC(=O)[C@@H]3CCCN(N3)C2=O)C(C)C)C1 [Example A052] | 6.00 to 7.00 | 6.00 to 7.00 | 5.00 to 6.00 | 6.00 to 7.00 | 7.00 to 8.00 | 6.00 to 7.00 | – | – | – | – | – | –
C=CC(=O)N1CC[C@H](C(=O)N(C)[C@H](C(=O)N[C@H]2Cc3cc(O)cc(c3)-c3ccc4c(c3)c(c(-c3cccnc3COC)n4CC)CC(C)(C)COC(=O)[C@@H]3CCCN(N3)C2=O)C2CCCC2)C1 [Example A055] | 5.00 to 6.00 | 6.00 to 7.00 | 5.00 to 6.00 | 6.00 to 7.00 | 7.00 to 8.00 | 6.00 to 7.00 | – | – | – | – | – | –
C=CC(=O)N1CC[C@H](C(=O)N(C)[C@H](C(=O)N[C@H]2Cc3cc(O)cc(c3)-c3ccc4c(c3)c(c(C3=C(COC)COCC3)n4CC)CC(C)(C)COC(=O)[C@@H]3CCCN(N3)C2=O)C(C)C)C1 [Example A058] | 5.00 to 6.00 | 5.00 to 6.00 | 5.00 to 6.00 | 6.00 to 7.00 | 7.00 to 8.00 | 6.00 to 7.00 | – | – | – | – | – | –
CCn1c(-c2cccnc2COC)c2c3cc(ccc31)-c1cc(O)cc(c1)C[C@H](NC(=O)[C@H](C(C)C)N(C)C(=O)[C@H]1CCN(C(=O)/C=C/CN3CCN(C)CC3)C1)C(=O)N1CCC[C@H](N1)C(=O)OCC(C)(C)C2 [Example A072] | 6.00 to 7.00 | 6.00 to 7.00 | 5.00 to 6.00 | 6.00 to 7.00 | 7.00 to 8.00 | 6.00 to 7.00 | – | – | – | – | – | –
C=CC(=O)N1CC[C@H](C(=O)N(C)[C@H](C(=O)N[C@H]2Cc3cc(O)cc(c3)-c3ccc4c(c3)c(c(-c3cncc(CN(C)C)c3)n4CC)CC(C)(C)COC(=O)[C@@H]3CCCN(N3)C2=O)C(C)C)C1 [Example A073] | 5.00 to 6.00 | 5.00 to 6.00 | < 5.00 | 5.00 to 6.00 | 6.00 to 7.00 | 5.00 to 6.00 | – | – | – | – | – | –
C=CC(=O)N1CC[C@H](C(=O)N(C)[C@H](C(=O)N[C@H]2Cc3cc(O)cc(c3)-c3ccc4c(c3)c(c(-c3cncc(CCN(C)C)c3)n4CC)CC(C)(C)COC(=O)[C@@H]3CCCN(N3)C2=O)C(C)C)C1 [Example A081] | 5.00 to 6.00 | 5.00 to 6.00 | < 5.00 | 5.00 to 6.00 | 6.00 to 7.00 | 5.00 to 6.00 | – | – | – | – | – | –
C=CC(=O)N1CC[C@H](C(=O)N(C)[C@H](C(=O)N[C@H]2Cc3cc(O)cc(c3)-c3ccc4c(c3)c(c(-c3ccncc3COC)n4CC)CC(C)(C)COC(=O)[C@@H]3CCCN(N3)C2=O)C(C)C)C1 [Example A091] | 6.00 to 7.00 | 6.00 to 7.00 | 5.00 to 6.00 | 6.00 to 7.00 | 7.00 to 8.00 | 6.00 to 7.00 | – | – | – | – | – | –
C=CC(=O)N1CC[C@H](C(=O)N(C)[C@H](C(=O)N[C@H]2Cc3cc(O)cc(c3)-c3ccc4c(c3)c(c(-c3cccnc3CN(C)C)n4CC)CC(C)(C)COC(=O)[C@@H]3CCCN(N3)C2=O)C(C)C)C1 [Example A092] | 5.00 to 6.00 | 5.00 to 6.00 | < 5.00 | 5.00 to 6.00 | 6.00 to 7.00 | 5.00 to 6.00 | – | – | – | – | – | –
